Measurements as given in patent US7199113B2, “Pharmaceutically active compounds and methods of use thereof” (priority 1998, dated 2007).

Columns and labels:
[1] = target: T1, human recombinant TF/VIIa complex (lipidated) (Homo sapiens, UniProt P13726); assay: TF/VIIa-dependent FX activation assay; type: biochemical; details: statement on FIG. 3
T1 construct: Truncated recombinant human tissue factor (e.g. composed of 243 amino acids) is expressed in E. coli; host or cells: E. coli (TF)
Experimental: A more particular example of the primary screening assay discussed previously is as follows. The assay is standard for measuring TF/VIIa-dependent factor X activation. […] In a more preferred embodiment, the primary screening preferably includes the following steps. • 1) admixing in a suitable assay solution about 0.1 nM of human recombinant TF/VIIa complex (lipidated), about 180 nM human FX, and between from about 0.5 μl to about 10 μl of at least one compound to be tested (optionally dissolved in an appropriate vehicle such as water or dimethylsulfoxide (DMSO)) and incubating the reaction at 37° C. for a few minutes up to about an hour or more, • 2) contacting the solution with a suitable chelating agent such as ethylenediaminietetra acetic acid (EDTA) to reduce or stop factor X activation, • 3) contacting the solution with a detectable amount of a chromogenic substrate specific for FXa (e.g., Spectrozyme FXa or S-2765) and incubating same at 37° C.; and • 4) detecting chromophore produced in the solution as being indicative of the factor X activation.
The primary screening for compounds that inhibit tissue factor/factor VIIa (TF/VIIa) is based on TF/VIIa-dependent FX activation assay (See flow chart in FIG. 1 of the drawings). In this assay, the ability of TF/VIIa complex to activate FX is determined in two discontinuous stages. […] In the second stage (FXa activity assay), EDTA is added at indicated times to the FX activation mixture to chelate calcium, thus leading to the termination of FX→FXa conversion. Calcium is required for TF/VIIa activity. The activity of FXa is then measured by FXa-specific chromogenic substrates such as S-2222, S-2765, or Spectrozyme FXa. In the primary screening, compounds from a previously prepared chemical library are first tested at relatively high concentrations (˜0.833 mM) in TF/VIIa-dependent FX activation assay to identify hits of potential TF pathway antagonists (see FIG. 1). However, it is evident that the inhibition of TF/VIIa-dependent FX activation by a compound in this enzyme-coupled assay can be attributed to effects of the compound on TF/VIIa and/or FXa activities. Thus, secondary screening tests are designed to determine how inhibition takes place and the inhibition mechanism. In secondary screening experiments, effects of those compounds identified from primary screening are tested on catalytic activities of factor VIIa (FVIIa), factor IXa (FIXa), factor Xa (FXa), thrombin, Russell's viper venom (RVV), and trypsin.
Primary screening was done in duplicate in 96-well plates using the TF/VIIa-dependent FX activation assay. All compounds to be screened were dissolved in dimethyl sulfoxide (DMSO), other reagents were prepared or diluted in 25 mM HEPES-NaOH, 5 mM CaCl2, 150 mM NaCl, 0.1% BSA, pH 7.5. For assays where TF was used, purified human recombinant TF (100 nM) was first lipidated with phosphatidylcholine (0.07 mg/ml) and phosphatidylserine (0.03 mg/ml) in 50 mM Tris-HCl, pH 7.5, 0.1% bovine serum albumin (BSA) for 30 minutes at 37° C. A stock solution of TF/VIIa complex was then prepared by combining equal volumes of 100 nM lipidated TF and 100 nM FVIIa The complex was incubated at 37° C. for 30 minutes and then was aliquoted and stored at −70° C. for future uses.
For screening assays, 5 μl of each compound (about 10 mM in DMSO) or DMSO were placed in each well of a 96-well plate, followed by adding 45 μl of TF/VIIa complex (0.1 nM). The components in each well were mixed either with pipette tips or by shaking the plate on a Lab-Line titer plate shaker for 30 seconds. After 15 minutes incubation of the plate at a 37° C., 10 μl of human FX (180 nM) was added to each well and mixed as above. The plate was then incubated at 37° C. for 3 to 15 minutes, followed by addition of 10 μl of EDTA (400 mM in 144 mM HEPES, 864 mM NaCl, 0.576% BSA, pH adjusted to 7.5) to each well to terminate FX activation. […]

TF/VIIa complex = target: T2, TF/VIIa complex (Homo sapiens, UniProt P13726); assay: TF/VIIa-dependent FIX activation assay; type: biochemical; details: statement on FIG. 3
T2 construct: Truncated recombinant human tissue factor (e.g. composed of 243 amino acids) is expressed in E. coli; host or cells: E. coli (TF)
T2 sequence (P13726 33-275 limits assumed): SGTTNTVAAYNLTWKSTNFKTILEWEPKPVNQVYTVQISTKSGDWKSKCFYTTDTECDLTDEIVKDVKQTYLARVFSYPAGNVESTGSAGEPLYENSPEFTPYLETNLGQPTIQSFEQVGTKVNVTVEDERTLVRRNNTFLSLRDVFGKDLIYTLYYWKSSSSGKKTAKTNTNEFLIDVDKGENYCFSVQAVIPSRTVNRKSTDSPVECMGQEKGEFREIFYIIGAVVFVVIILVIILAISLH
T2 sequence (P08709 61-212 partner limits assumed): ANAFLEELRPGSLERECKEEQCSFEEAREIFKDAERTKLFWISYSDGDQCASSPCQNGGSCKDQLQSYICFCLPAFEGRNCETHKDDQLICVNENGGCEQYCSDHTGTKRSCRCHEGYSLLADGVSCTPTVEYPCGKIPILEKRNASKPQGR
T2 sequence (P08709 213-466 partner limits assumed): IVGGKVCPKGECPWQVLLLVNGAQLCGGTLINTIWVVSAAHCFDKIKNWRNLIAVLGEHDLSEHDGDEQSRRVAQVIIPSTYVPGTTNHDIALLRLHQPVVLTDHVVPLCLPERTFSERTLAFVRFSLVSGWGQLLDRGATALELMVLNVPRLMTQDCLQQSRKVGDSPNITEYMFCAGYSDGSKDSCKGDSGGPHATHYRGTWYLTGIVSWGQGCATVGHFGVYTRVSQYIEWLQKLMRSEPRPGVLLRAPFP
Experimental: In a more particular embodiment, the standard assay preferably includes the following steps: • 1) admixing in a suitable assay solution about 0.7 nM TF/VIIa complex with 300 nM factor IX and 1000 nM factor X, and from between about 0.5 μl to about 10 μl of at least one compound to be tested (optionally dissolved in an appropriate vehicle such as water or dimethylsulfoxide (DMSO)) and incubating the solution at 37° C. from between about a few minutes up to about an hour under conditions suitable for forming FIXa and FXa; • 2) contacting the solution with a suitable chelating agent such as EDTA to stop FIX activation; • 3) contacting the solution with a chromogenic substrate specific for the FXa (e.g., Spectrozyme FXa) and incubating same at 37° C.; and • 4) detecting chromophore in the solution as being indicative of the factor IX activation.
TF/VIIa is not only able to activate FX, but is also able to convert FIX to FIXa. To examine whether the two antagonists 1 and 2 were able to block FIX activation catalyzed by TF/VIIa. FIX activation experiment was conducted. To each well of a 96-well plate, 5 μl of diluted DMSO or compound was added, followed by 45 μl of TF/VIIa (0.67 nM). After mixing and incubating for 15 minutes at 37° C., 10 μl of FIX (300 nM) was added and incubated for 10 minutes at 37° C. 10 μl of EDTA ([…] in 144 mM HEPES, […], 0.576% BSA, pH adjusted to 7.5) was added, followed by addition of 10 μl of FX (1000 nM), 10 μl of polylysine, and 10 μl of Spectrozyme FXa (6 mM). After 3 hour incubation at 37° C., absorbance at 405 nm was measured following addition of 20 μl of 50% acetic acid. The percent inhibition of TF/VIIa-dependent FIX activation was calculated from OD405 nm values in the absence and presence of a compound.

[2] = target: T3, TF (243 form lipidated or 219 form unlipidated) (Homo sapiens, UniProt P13726); assay: Isothermal calorimetry analysis of binding to TF
T3 construct: made in house; host or cells: E. coli (stated for the 243-aa form)
T3 sequence (P13726 33-251): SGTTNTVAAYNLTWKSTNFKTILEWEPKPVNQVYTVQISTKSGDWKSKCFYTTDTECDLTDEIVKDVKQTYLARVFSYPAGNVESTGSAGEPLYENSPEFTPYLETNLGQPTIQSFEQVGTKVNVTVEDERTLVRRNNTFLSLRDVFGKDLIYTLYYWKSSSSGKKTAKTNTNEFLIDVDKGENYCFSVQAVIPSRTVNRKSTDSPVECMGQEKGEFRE

T1 sequence (P13726 33-275 limits assumed): as the sequence (P13726 33-275 limits assumed) above
T1 sequence (P08709 61-212 partner limits assumed): as the sequence (P08709 61-212 partner limits assumed) above
T1 sequence (P08709 213-466 partner limits assumed): as the sequence (P08709 213-466 partner limits assumed) above

Compound	blocking activity in standard assay for TF/VIIa-dependent factor X activation [1]	blocking activity in standard assay for TF/VIIa-dependent factor IX activation (TF/VIIa complex)	binding to TF [2]
Nc1ccc(NCC(P(=O)(O)O)P(=O)(O)O)cc1 [Compound 3]	good blocking activity	good blocking activity	–
Cc1ccc(NCC(P(=O)(O)O)P(=O)(O)O)cc1 [Compound 4]	good blocking activity	good blocking activity	–
1-(bisphosponate)-2-amino(3-hydroxyphenyl)ethyl [Compound 1]	–	–	directly observed

Next, values leading:

blocking activity in standard assay for TF/VIIa-dependent factor X activation [1]	blocking activity in standard assay for TF/VIIa-dependent factor IX activation (TF/VIIa complex)	binding to TF [2]	Compound
good blocking activity	good blocking activity	–	O=P(O)(O)C(COc1ccccc1)P(=O)(O)O [Compound 6]
good blocking activity	good blocking activity	–	NCCCC(O)(P(=O)(O)O)P(=O)(O)O [Fosamax, reference compound]
